In patent US20070167464A1, “Fungicidal mixtures” (BASF Aktiengesellschaft, priority 2004, published 2007):

Tested on: Pyrenophora teres
Experiment: activity against net blotch of barley caused by Pyrenophora teres, 1-day-protective application
Assay type: in vivo, Pyrenophora [syn. Drechslera] teres on barley seedlings
Details: individual active compound, evaluated after 6 days
Protocol: The active compounds, separately or jointly, were prepared as a stock solution comprising 0.25% by weight of active compound in acetone or DMSO. 1% by weight of the emulsifier Uniperol® EL (wetting agent having emulsifying and dispersant action based on ethoxylated alkylphenols) was added to this solution, and the mixture was diluted with water to the desired concentration.
Use example-activity against net blotch of barley caused by Pyrenophora teres, 1-day-protective application
Leaves of pot-grown barley seedlings were sprayed to run-off point with an aqueous suspension having the concentration of active compound stated below. 24 hours after the spray coating had dried on, the test plants were inoculated with an aqueous spore suspension of Pyrenophora[syn. Drechslera] teres, the causative agent of net blotch. The test plants were subsequently placed in a greenhouse at temperatures between 20 and 24° C. and at 95 to 100% relative atmospheric humidity. After 6 days, the extent of development of the disease was determined visually in % infection of the total leaf area.
The visually determined percentages of infected leaf areas were converted into efficacies in % of the untreated control:
The efficacy (E) is calculated as follows using Abbot's formula: E=(1α/β)·100 • α corresponds to the fungicidal infection of the treated plants in % and • β corresponds to the fungicidal infection of the untreated (control) plants in %
An efficacy of 0 means that the infection level of the treated plants corresponds to that of the untreated control plants; an efficacy of 100 means that the treated plants were not infected.
The expected efficacies of mixtures of active compounds were determined using Colby's formula (Colby, S. R. “Calculating synergistic and antagonistic responses of herbicide combinations”, Weeds, 15, 20-22, 1967) and compared with the observed efficacies.
Colby's Formula: E=x+y−x·y/100 • E expected efficacy, expressed in % of the untreated control, when using the mixture of the active compounds A and B at the concentrations a and b • x efficacy, expressed in % of the untreated control, when using the active compound A at the concentration a
y efficacy, expressed in % of the untreated control, when using the active compound B at the concentration b

SMILES | Efficacy in % of the untreated control (1.25 ppm in the spray liquor) | Efficacy in % of the untreated control (0.25 ppm in the spray liquor) | Efficacy in % of the untreated control (6.25 ppm in the spray liquor)
CC1CCN(c2c(-c3c(F)cc(F)cc3F)c(Cl)nc3ncnn23)CC1 [I, 5-chloro-7-(4-methylpiperidin-1-yl)-6-(2,4,6-trifluorophenyl)-[1,2,4]triazolo[1,5-a]pyrimidine] | 53% |  | 
CC(C)OC(=O)N[C@H](C(=O)N[C@H](C)c1nc2ccc(F)cc2s1)C(C)C [II.1, isopropyl {(S)-1-[(1 R)-1-(6-fluorobenzothiazol-2-yl)ethylcarbamoyl]-2-methylpropyl}carbamate] | 0% | 0% | 0%
